Holding throughout (assay): growth of human tumour cells (NCI), 48 h
The test system of experiment [1] is OVCAR-4 ovarian.
For experiment [2], the system named is EKVX NSCLC.
Experiment [3] deals with HOP-62 NSCLC.
Experiment [4] relates to MDA-MB-231 breast.
The test system of experiment [5] is MOLT-4 leukemia.
The subject of experiment [6] is KM12 colon.
Experiment [7] concerns SK-MEL-5 melanoma.
The test system of experiment [8] is ACHN renal.
In experiment [9] the test system is OVCAR-8 ovarian.
Experiment [10] deals with SF-539 CNS.

Structures are written as SMILES. Where “and” joins values, the source holds several entries; their conditions need not be identical. Identical values can stand only once.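 Grown in 96-well plates, cells were treated for 48 hours with each compound at five concentrations. Insufficient inhibition: endpoint recorded as highest concentration tested. At the GI50, growth is halved. Definition used: TGI = concentration required for complete inhibition of growth.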

Our source for the GI50 and TGI values is PubChem BioAssay (NCI).

For `O=[N+]([O-])c1ccc(N2CCOCC2)c2c1no[n+]2[O-]`, the GI50 in [1] was 1380 nM; in experiment [2], 1930 nM; in experiment [3] it was 1610 nM; in experiment [4] it was 2700 nM; in experiment [5], 850 nM; in [6], 1140 nM. The GI50 in [7] was 1410 nM; in experiment [8] it was 528 nM; in experiment [9], 1100 nM; in [10] it was 1070 nM. The TGI came to 3.99 µM in experiment [1]; 6.72 µM in experiment [2]; 6.58 µM in experiment [3]; 15.6 µM in [4]; 3.43 µM in [5]; 2.48 µM in [6]. For the same molecule, the TGI in experiment [7] was determined as 3.34 µM; in [8] it was 3.15 µM; in experiment [9], 2.62 µM; in experiment [10] it was 2.27 µM.
In the case of `CN(CCNCc1ccccn1)CCNCc1ccccn1`, the GI50 in experiment [1] was 2850 nM; in experiment [2] it was 3010 nM; in experiment [3], 3850 nM; in experiment [4] it was 2560 nM; in [5], 3610 nM; in experiment [6], 3110 nM. For the same molecule, the GI50 in experiment [7] is 1750 nM; in [8], 2200 nM; in experiment [9], 2990 nM; in experiment [10], 2060 nM. Also, the TGI is 8.99 µM in experiment [1]; 12.3 µM in [2]; 22.6 µM in experiment [3]; 5.93 µM in [4]; > 100 µM in experiment [5]; 10.1 µM in experiment [6]. Also, the TGI in experiment [7] came to 3.16 µM; in experiment [8] it was 5.82 µM; in experiment [9] it was 7.62 µM; in experiment [10], 5.33 µM.
On to `Cc1cc[n+]2c(c1)-c1cc(C)cc[n+]1CC2`, for which the TGI in experiment [1], in [2], in [3], in experiment [4], in experiment [5] and in [6] was > 100 µM each time. Besides, the TGI in experiment [7], in experiment [8], in experiment [9] and in [10] was > 100 µM throughout.
Regarding `CSc1nc2sc3c(c2c(=O)n1-c1ccc(C(C)C)cc1)CCC(=O)C3`, the GI50 is 2340 nM in [1]; 3020 nM in experiment [2]; 2050 nM in [3]; 2470 nM in [4]; 2640 nM in [5]; 1900 nM in experiment [6]. Also, the GI50 in experiment [7] was 1710 nM; in experiment [8], 2250 nM; in experiment [9], 2120 nM; in experiment [10], 2050 nM. In addition, the TGI in experiment [1] was 5.86 µM; in experiment [2], > 100 µM; in experiment [3], 4.05 µM; in experiment [4] it was 6.3 µM; in [5] it was 6.71 µM; in experiment [6], 3.95 µM. Further, the TGI was found to be 3.36 µM in experiment [7], 4.48 µM in experiment [8], 4.49 µM in experiment [9] and 4.1 µM in experiment [10].
For the molecule `NS(=O)(=O)c1ccc(-c2cc3ccncc3cc2OCc2ccccc2)cc1`, the GI50 in experiment [1] is > 19600 nM; in experiment [2] it was > 22900 nM; in [3], 6830 nM; in experiment [4], 14600 nM; in experiment [5], > 13600 nM; in experiment [6], > 20200 nM. Further, the GI50 in experiment [7] was > 25000 nM; in experiment [8] it was > 19000 nM; in experiment [9], 8190 nM; in experiment [10], 7170 nM. For the same molecule, the TGI in [1], in experiment [2], in [3], in experiment [4], in [5] and in [6] was > 25 µM throughout. Further, the TGI in experiment [7], in experiment [8], in experiment [9] and in experiment [10] was > 25 µM each time.
In the case of `Oc1cccc2ccc(N/N=C/c3cc(CN4CCOCC4)c(O)c4ncccc34)nc12`, the GI50 in [1] is 33.9 nM; in experiment [2], 96.2 nM; in [3] it was 28.1 nM; in experiment [4], 44.1 nM; in experiment [5] it was 53 nM; in experiment [6] it was 26.7 nM. For the same molecule, the GI50 was 12.4 nM in [7], < 11.9 nM in experiment [8], 20.7 nM in experiment [9] and 35.2 nM in [10]. In addition, the TGI in [1] was found to be 2.14 µM; in [2], 11.2 µM; in [3], 1.44 µM; in experiment [4] it was 2.25 µM; in experiment [5] it was 5.62 µM; in [6], 3.41 µM. In addition, the TGI in experiment [7] was 0.0375 µM; in experiment [8] it was 1.47 µM; in [9], 2.09 µM; in experiment [10], 1.64 µM.
As for `C=CCN1CC(=O)N2[C@@H](Cc3ccc(O)cc3F)C(=O)N(Cc3cccc(N4CC(N5CCN(CC)CC5)C4)n3)C[C@@H]2N1C(=O)NCc1ccccc1`, the GI50 in [1] is 32.9 nM; in experiment [2], 278 nM; in experiment [3], 56.2 nM; in experiment [4] it was 21.6 nM; in experiment [5] it was 27.6 nM; in experiment [6], 111 nM. In addition, the GI50 in experiment [7] was 70.3 nM; in experiment [8], 393 nM; in experiment [9], 29.5 nM; in [10], 31.7 nM. The TGI was > 100 µM in experiment [1]; > 100 µM in [2]; > 100 µM in experiment [3]; 0.139 µM in experiment [4]; > 100 µM in [6]; 0.33 µM in [7]. For the same molecule, the figures for the TGI in experiment [8] and in experiment [10] were > 100 µM and 0.288 µM, respectively.
For the molecule `O=C(O)CCC(=O)c1ccc2sc3ccccc3c2c1`, the TGI in [1], in [2], in [3], in experiment [4], in [5] and in [6] was > 100 µM throughout. Also, the TGI in experiment [7], in experiment [8], in [9] and in experiment [10] was > 100 µM in each case.
As for `N#CCN1CCn2c1nsc2=S`, the GI50 in experiment [1] is > 100000 nM; in [2], > 100000 nM; in [3], > 100000 nM; in [4] it was > 100000 nM; in experiment [5], 5100 nM; in [6], 88900 nM. Also, the GI50 in experiment [7], in experiment [8], in [9] and in [10] was > 100000 nM each time. The TGI in [1], in [2], in [3], in [4], in experiment [5] and in experiment [6] was > 100 µM each time. Moreover, the TGI in [7], in experiment [8], in [9] and in experiment [10] was > 100 µM throughout.
Regarding `COc1ccc(/C=C(\C#N)n2nnc3c(F)cccc32)cc1`, the GI50 was > 28200 nM in experiment [1]; 501 nM in experiment [2]; 621 nM in [3]; 551 nM in experiment [4]; 456 nM in experiment [5]; 390 nM in experiment [6]. Moreover, the GI50 was 470 nM in experiment [7], 689 nM in experiment [8], 532 nM in experiment [9] and 322 nM in [10]. The TGI was > 100 µM in experiment [1]; > 100 µM in experiment [2]; > 83.1 µM in [3]; 3.68 µM in experiment [4]; > 100 µM in experiment [5]; > 100 µM in experiment [6]. Further, the TGI in experiment [7] is > 33.7 µM; in experiment [8], > 51.6 µM; in experiment [9] it was > 34.5 µM; in [10], 1.48 µM.
For the molecule `C[C@]12CC[C@@H]3c4cc(OC(F)F)c(OS(N)(=O)=O)cc4CC[C@H]3[C@@H]1CC[C@@H]2O`, the GI50 in experiment [1] is 7800 nM; in experiment [2], 709 nM; in [3], 592 nM; in experiment [4], 1620 nM; in [5], 641 nM; in [6], 422 nM. The GI50 in experiment [7] was 315 nM; in experiment [8], 650 nM; in experiment [9], 848 nM; in experiment [10] it was 333 nM. The TGI was 83.9 µM in experiment [1]; 54.8 µM in experiment [2]; 27.3 µM in [3]; 15.5 µM in [4]; > 64.4 µM in [5]; 16.6 µM in experiment [6]. Moreover, the TGI came out at 3.56 µM in experiment [7], 49.1 µM in experiment [8], 60.7 µM in experiment [9] and 4.58 µM in experiment [10].
`COc1ccc(NC(=O)C2CCC(CNS(=O)(=O)c3ccccc3)CC2)cc1OC` (centres undefined): the GI50 in experiment [1] was > 100000 nM; in experiment [2], > 100000 nM; in experiment [3], 26800 nM; in [4] it was 35300 nM; in experiment [5], > 100000 nM; in experiment [6], > 100000 nM. In addition, the GI50 in experiment [7], in experiment [8], in experiment [9] and in [10] was > 100000 nM each time. Besides, the TGI is > 100 µM in [1]; > 100 µM in experiment [2]; 86.8 µM in experiment [3]; > 100 µM in experiment [4]; > 100 µM in experiment [5]; > 100 µM in [6]. Besides, the TGI in experiment [7], in experiment [8], in experiment [9] and in experiment [10] was > 100 µM each time.
Regarding `OCCNC1c2cc(Cl)ccc2-c2c(Cl)cc(Cl)cc21` (centres undefined), the TGI in experiment [1] is > 100 µM; in [2], > 100 µM; in [3], > 100 µM; in experiment [4], 98.9 µM; in experiment [5], 47.6 µM; in experiment [6], > 100 µM. For the same molecule, the TGI in [7] is > 100 µM; in experiment [8] it was 67 µM; in [9], > 100 µM; in [10] it was > 100 µM.
As to `CC(=O)NCc1cccc(C#Cc2cncnc2Nc2ccc(OCc3cccc(F)c3)c(Cl)c2)c1`, the GI50 in [1] is 12900 nM; in [2], 1460 nM; in experiment [3], > 25000 nM; in experiment [4], > 25000 nM; in experiment [5] it was 7420 nM; in experiment [6], 11100 nM. The GI50 in experiment [7] was 9440 nM; in experiment [8], 5840 nM; in experiment [9], 9580 nM; in [10], > 21100 nM. Besides, the TGI was > 25 µM in [1]; > 14.8 µM in experiment [2]; > 25 µM in experiment [3]; > 25 µM in experiment [4]; > 25 µM in experiment [5]; > 25 µM in experiment [6]. The TGI in experiment [7], in experiment [8], in [9] and in experiment [10] was > 25 µM each time.
As for `COc1cc2nc(-c3cc(F)ccc3O)nc(N[C@@H]3CNC[C@H]3C(C)(C)O)c2cc1OC`, the GI50 in [1] was 1880 nM; in [2], 1440 nM; in [3] it was 1260 nM; in experiment [4] it was 1230 nM; in [5], 2090 nM; in [6], 1730 nM. Further, the GI50 in [7] was 1740 nM; in [8], 1750 nM; in experiment [9] it was 1630 nM; in experiment [10], 1550 nM. Also, the TGI in experiment [1] came out at 4.65 µM; in experiment [2], 3.02 µM; in [3], 2.76 µM; in [4], 2.8 µM; in [5], 4.7 µM; in [6], 3.18 µM. Also, the TGI came out at 3.15 µM in experiment [7], 3.38 µM in experiment [8], 3.07 µM in [9] and 3 µM in experiment [10].
As to `CC(C)(Br)C(=O)C(Br)Br`, the TGI is 10.9 µM and 9.91 µM in experiment [1]; 26.8 µM and 9.94 µM in [2]; > 56.5 µM and 104 µM in [3]; 10 µM in [4]; 5.1 µM in experiment [5]; 30.8 µM and 11.7 µM in experiment [6]. The TGI in experiment [7] is 25 µM and 9.92 µM; in experiment [8] it was 22.5 µM and 9.58 µM; in [9], 14.9 µM and 9.13 µM; in experiment [10], > 48.2 µM and 9.97 µM. The GI50 was 5230 nM in experiment [2]; 59700 nM in [3]; 5800 nM in experiment [6]; 5550 nM in experiment [7]; 5340 nM in experiment [8]; 5420 nM in experiment [10].
